Data from patent US8168199B2, “Dipeptidyl peptidase IV inhibitors for the treatment of schizophrenia and depression” (priority 2000, dated 2012).
Entries after “also recorded” stand apart in the source; their conditions may differ.

Legend:
[1] = tested on: Male WistarF/Han (WF) rats; assay: Response to novelty (Open field test), i.c.v. P32/98; assay type: in vivo, rat
Protocol: (§1) Animals. Male WistarF/Han (WF) rats (Central Animal Laboratory, Hannover Medical School, Hannover, Germany, weighing 350-390 g, were housed in a sound-proof, temperature controlled (24.0±0.5° C.) room under specific pathogen free conditions with a 12/12 h dark/light cycle (lights on at 07.00 with illumination level of 80 Lux). Food (Altromin lab chow pellets) and tap water were available ad libitum. Under ketamine/xylasine (100/5 mg/kg, i.p.) anesthesia, the rats were fixed in a Kopf stereotaxic frame and implanted with cannulae (Plastic One, Inc., Roanoke, Va., USA) above the lateral ventricle. All research and animal care procedures were approved by the Lower Saxony district government (Hannover, Germany) and followed principles described in the European Community's Council Directive of 24 Nov. 1986 (86/609/EEC).
Surgery and i.c.v. application. For surgery, rats were anesthetized and prepared with i.c.v. cannulaes (coordinates: A: −0.7 mm caudal, L: 1.4 mm lateral to bregma; and V: 3.2 mm ventral to the skull surface; tooth bar +3.0 above ear bars) using standard stereotaxic procedures as described in detail elsewhere (von Hörsten et al., 1998a,b,c). […]
Response to novelty (Open field test). […] Spontaneous activity during a single continuous test session of 15 min was recorded using a video path analyzer system (E61-21 Video Path Analyser system, Coulbourn instruments, PA, U.S.A.). […] Furthermore, the total incidence of fecal boli was counted after each session and the incidence and duration (sec) of grooming behavior was simultaneously recorded from a video monitor by a person blind to the treatment of the animals (von Hörsten et al., 1998c).
Statistical analysis. For statistical analysis, behavioral raw data from every test minute were analyzed by two-way analyses of variance (ANOVA) for repeated measures (factors: treatment and time as a repeated measurement). Data obtained as totals from a session were analyzed by one-way (factor: treatment) ANOVA. […]

[2] = tested on: Male WistarF/Han (WF) rats; assay: 1 h and 12 h food-intake after i.c.v. P32/98 and NPY (Example 3); assay type: in vivo, rat
Protocol: as §1, with “330-370” for “350-390”
Surgery and i.c.v. application. For surgery, rats were anesthetized and prepared with i.c.v. cannulae (coordinates: A: −0.7 mm caudal, L: 1.4 mm lateral to bregma; and V3.2 mm ventral to the skull surface; tooth bar +3.0 above ear bars) using standard stereotaxic procedures as described in detail elsewhere (von Hörsten et al., 1998a, b, c). After a 7-day recovery period, successful ventricle cannulation was confirmed by an angiotensin drinking response (von Hörsten et al., 1998a). Rats showing a positive drinking response (n=59) were then habituated to experimental handling by daily sham injections for seven days.
Animals were randomly divided into two sets of four experimental groups (n=5-6/group), which completed different consecutive SI test of anxiety. […] The time spent in active social interaction (SI-time), 1 h and 12 h food-intake were measured. […]
Statistical analysis. Data from repeated observations (food intake) were analyzed by two-way analyses of variance for repeated measures (ANOVA) (factors: “substrain” and “food intake” as repeated measure). Data obtained from simple measures such as DPIV activity or SI time were analyzed by one-way (factor: “substrain”) ANOVA. […]

CC[C@H](C)[C@H](N)C(=O)N1CCSC1 [P32/98]
activity in the open field (distance traveled) ([1]; i.c.v. 0.05, 5, 500 nmol, 60 min before test, four consecutive minutes, vs aCSF): no effect on activity; also recorded: no significant effect | time spent close to the wall in the open field ([1]; i.c.v. 0.05, 5, 500 nmol, 60 min before test, sum of four consecutive minutes, vs aCSF): dose-dependent reduction; also recorded: significant effect | dosage already effective on time spent close to the wall ([1]; i.c.v., open field): 50 pmol | dose at which the 1 h feeding effect reached significance ([2]; i.c.v.): 0.05 nmol | amount of food eaten within 1 h ([2]; i.c.v. P32/98 5 pmol-500 nmol, NPY 50 pmol-1.6 nmol, dark cycle): mild feeding effect
